These results are taken from ChEMBL document CHEMBL1201862, “PubChem BioAssay data set” (2004).

Some test systems named below: NCI-H460; HCT-15; K562; SF-268; NCI-H522; UO-31; 786-0; SNB-75; A498; HOP-92; A549; HOP-62; OVCAR-5; HCT-116; EKVX; NCI-H226; LOX IMVI; SF-295.
Assay in all cases: NCI-60 cell line screen, 48 h

The structures appear in SMILES notation.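 48-hour exposure; five concentrations; linearly interpolated endpoints. GI50 is the concentration that inhibits growth by half.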 The source made the active and inactive calls. Cut-off read from the data, not from the text of the source: active = GI50 up to about 1.1 µM and inactive = higher. A value given as a limit tells only on which side of the number the result lay.

On to `CCOC(=O)C(=O)Nc1c(N(CC)CC)n2ccccc2nc1=O`, for which the GI50 with NCI-H460 is > 100 µM (inactive); in the assay on HCT-15 it was more than 100 µM; in the assay on K562, > 100 µM (inactive); in the assay on SF-268, > 100 µM (inactive); in the assay on NCI-H522, > 100 µM (inactive); in the assay with UO-31, > 100 µM (inactive). Further, the GI50 in the assay on 786-0, in the assay on SNB-75, in the assay with A498, in the assay on HOP-92, with A549 and in the assay with HOP-62 was > 100 µM (inactive) each time. Also, the GI50 with OVCAR-5, in the assay with HCT-116, with EKVX and in the assay with NCI-H226 was > 100 µM (inactive) throughout.

On to `COC(=O)[C@]12CSCN1C(=O)C(C(C)=O)=NN2C(=O)[C@](OC)(c1ccccc1)C(F)(F)F`, for which the GI50 in the assay with NCI-H460 was > 100 µM (inactive); in the assay with HCT-15, more than 100 µM; in the assay on K562, > 100 µM (inactive); in the assay on SF-268, > 100 µM (inactive); in the assay on NCI-H522, 88.7 µM (inactive); in the assay with UO-31 it was > 100 µM (inactive). Moreover, the GI50 in the assay on 786-0 is > 100 µM (inactive); in the assay on SNB-75 it was 8.17 µM (inactive); in the assay with LOX IMVI, > 100 µM (inactive); in the assay on A549, > 100 µM (inactive); in the assay with HOP-62, > 100 µM (inactive); in the assay on SF-295, > 100 µM (inactive). The GI50 was > 100 µM (inactive) in the assay on OVCAR-5, > 100 µM (inactive) in the assay on HCT-116, > 100 µM (inactive) with EKVX and 88.9 µM (inactive) in the assay with NCI-H226.

As for `Cc1ccc(NC(=O)/C(=N/NC(=O)C[N+](C)(C)C)c2nc3ccccc3nc2O)cc1`, the GI50 is > 100 µM (inactive) with NCI-H460; 81.1 µM with HCT-15; > 100 µM (inactive) in the assay on SF-268; > 100 µM (inactive) in the assay with UO-31; > 100 µM (inactive) with 786-0; > 100 µM (inactive) in the assay with SNB-75. The GI50 in the assay on A498 was > 100 µM (inactive); with HOP-92, > 100 µM (inactive); in the assay on LOX IMVI, 51.4 µM (inactive); in the assay with A549, > 100 µM (inactive); in the assay with HOP-62, > 100 µM (inactive); with SF-295, > 100 µM (inactive). Besides, the GI50 in the assay on OVCAR-5, with HCT-116, with EKVX and in the assay with NCI-H226 was > 100 µM (inactive) in each case.

For `CCCCCCC1CCC2CCCC(C)N12` (configuration not stated), the GI50 was 23.7 µM (inactive) in the assay with NCI-H460; 32.8 µM in the assay with HCT-15; 13.8 µM (inactive) in the assay on K562; 43.4 µM (inactive) with SF-268; 22.9 µM (inactive) with NCI-H522; 19.7 µM (inactive) in the assay on UO-31. The GI50 was 30.1 µM (inactive) in the assay with 786-0; 39.8 µM (inactive) in the assay on SNB-75; 25.8 µM (inactive) in the assay on HOP-92; 77.1 µM (inactive) in the assay on A549; > 100 µM (inactive) in the assay on HOP-62; 43.4 µM (inactive) in the assay with SF-295. The GI50 was 51.1 µM (inactive) in the assay on HCT-116, > 100 µM (inactive) with EKVX and > 100 µM (inactive) in the assay on NCI-H226.

`CC[n+]1c(/C=C/c2cc(C(=O)OC)n3c2sc2ccccc23)sc2ccccc21`: the GI50 in the assay on NCI-H460 was 16.2 µM (inactive); in the assay with HCT-15, 18.8 µM; in the assay with SF-268, 21.5 µM (inactive); in the assay on NCI-H522, 15.6 µM (inactive); in the assay on UO-31 it was 17.5 µM (inactive); in the assay with 786-0, 19.1 µM (inactive). Besides, the GI50 in the assay with SNB-75 was 15.7 µM (inactive); with HOP-92, 15.5 µM (inactive); in the assay on LOX IMVI it was 17.5 µM (inactive); in the assay on A549, 18.8 µM (inactive); with HOP-62 it was 0.434 µM (active); in the assay with OVCAR-5, 20.8 µM (inactive). The GI50 in the assay with HCT-116 was 14.5 µM (inactive); in the assay with EKVX it was 20.7 µM (inactive); in the assay on NCI-H226, 23 µM (inactive).

Consider `CC(=O)OC(C)(C)C1CCC(C)(C(O)COc2ccc(CCNC(=O)c3ccccc3)cc2)O1` (configuration not stated), for which the GI50 is 61.8 µM (inactive) in the assay on NCI-H460; 46 µM in the assay with HCT-15; > 100 µM (inactive) in the assay with SF-268; 51.2 µM (inactive) in the assay with NCI-H522; 33.7 µM (inactive) with UO-31; > 100 µM (inactive) in the assay on 786-0. Moreover, the GI50 is 91.6 µM (inactive) in the assay with SNB-75; > 100 µM (inactive) in the assay with HOP-92; 31.4 µM (inactive) in the assay on LOX IMVI; 51.1 µM (inactive) in the assay on A549; 43.2 µM (inactive) with HOP-62; 37.1 µM (inactive) in the assay with SF-295. Further, the GI50 in the assay on OVCAR-5 is > 100 µM (inactive); with HCT-116, 28.8 µM (inactive).

Take `C=CC1=C(C)/C(=C/C2=NC(=C\c3[nH]c(CC4NC(=O)C(C)/C4=C\C)c(C)c3CCC(=O)O)/C(CC(=O)O)=C2C)NC1=O` (configuration not stated): the GI50 in the assay on NCI-H460 is > 100 µM (inactive); in the assay with HCT-15, more than 100 µM; in the assay on K562, > 100 µM (inactive); in the assay with SF-268, > 100 µM (inactive); with NCI-H522, > 100 µM (inactive); in the assay on UO-31, > 100 µM (inactive). The GI50 in the assay on 786-0 was > 100 µM (inactive); in the assay with SNB-75, > 100 µM (inactive); in the assay with HOP-92, 70 µM (inactive); with LOX IMVI it was > 100 µM (inactive); with A549, > 100 µM (inactive); with HOP-62 it was > 100 µM (inactive). The GI50 in the assay with SF-295, in the assay on OVCAR-5, in the assay on HCT-116, in the assay with EKVX and in the assay with NCI-H226 was > 100 µM (inactive) each time.

On to `Cc1ccccc1-n1c(=S)[nH]c2c(sc(=O)n2-c2ccccc2C)c1=O`, for which the GI50 was > 100 µM (inactive) in the assay with NCI-H460; more than 100 µM in the assay on HCT-15; > 100 µM (inactive) in the assay with K562; > 100 µM (inactive) in the assay with SF-268; > 100 µM (inactive) with NCI-H522; > 100 µM (inactive) with UO-31. The GI50 in the assay on 786-0, with SNB-75, in the assay with A498, with HOP-92, in the assay with A549 and in the assay on HOP-62 was > 100 µM (inactive) in each case. Further, the GI50 in the assay with SF-295, in the assay with OVCAR-5, with HCT-116, in the assay with EKVX and with NCI-H226 was > 100 µM (inactive) in each case.

As for `O=C1C2ON3c4ccccc4C(=O)C3(c3ccccc3)C2C(=O)N1c1ccccc1` (configuration not stated), the GI50 was more than 100 µM in the assay with HCT-15; > 100 µM (inactive) with K562; > 100 µM (inactive) with SF-268; > 100 µM (inactive) in the assay on NCI-H522; > 100 µM (inactive) in the assay with UO-31; > 100 µM (inactive) with 786-0. In addition, the GI50 with SNB-75, in the assay on A498, with HOP-92, in the assay on A549, with HOP-62 and in the assay on SF-295 was > 100 µM (inactive) in each case. Also, the GI50 in the assay on HCT-116, in the assay on EKVX and with NCI-H226 was > 100 µM (inactive) each time.

As to `CN(C)c1ccc(/C=N/C23CC4CC(CC(C4)C2)C3)cc1`, the GI50 in the assay on NCI-H460 was > 100 µM (inactive); in the assay on HCT-15 it was more than 100 µM; in the assay with K562 it was > 100 µM (inactive); in the assay with SF-268 it was > 100 µM (inactive); with NCI-H522 it was > 100 µM (inactive); with UO-31 it was > 100 µM (inactive). Further, the GI50 in the assay on 786-0 is > 100 µM (inactive); in the assay with SNB-75, > 10 µM (inactive); with A498, > 100 µM (inactive); in the assay with LOX IMVI it was > 100 µM (inactive); with A549, > 100 µM (inactive); in the assay with HOP-62 it was > 100 µM (inactive). Further, the GI50 with SF-295, in the assay on OVCAR-5, in the assay with HCT-116, with EKVX and with NCI-H226 was > 100 µM (inactive) in each case.

For the compound `CC(=O)O[C@H]1C(=O)[C@@]2(C)C(C(OC(=O)c3ccccc3)[C@]3(O)CC(OC(=O)C(O)C(NC(=O)c4ccc(C)cc4)c4ccccc4)C(C)=C1C3(C)C)[C@]1(OC(C)=O)CO[C@@H]1C[C@@H]2O` (some centres not stated), the GI50 in the assay with NCI-H460 is < 0.0025 µM (active); in the assay on HCT-15, 0.173 µM; in the assay with K562 it was < 0.0025 µM (active); with SF-268 it was 0.00573 µM (active); in the assay on NCI-H522, < 0.0025 µM (active); in the assay on UO-31, 0.826 µM (active). The GI50 in the assay on 786-0 is 0.0074 µM (active); with SNB-75 it was 0.0045 µM (active); in the assay with A498, 0.00596 µM (active); with LOX IMVI, 0.00352 µM (active); with A549, 0.00504 µM (active); in the assay with HOP-62 it was 0.00986 µM (active). The GI50 in the assay on SF-295 was 0.0228 µM (active); with OVCAR-5 it was 0.00743 µM (active); in the assay with HCT-116, < 0.0025 µM (active); in the assay with EKVX it was 0.111 µM (active).

In the case of `O=c1ccccc2cccc(O)c12`, the GI50 in the assay with NCI-H460 is > 100 µM (inactive); with HCT-15, more than 100 µM; in the assay on K562, > 100 µM (inactive); in the assay with 786-0 it was > 100 µM (inactive); in the assay with SNB-75 it was > 100 µM (inactive); in the assay with A498, > 100 µM (inactive). The GI50 was 84.1 µM (inactive) in the assay with HOP-92; > 100 µM (inactive) in the assay with LOX IMVI; > 100 µM (inactive) in the assay with A549; > 100 µM (inactive) in the assay with HOP-62; > 100 µM (inactive) in the assay on SF-295; > 100 µM (inactive) in the assay on HCT-116. In addition, the GI50 in the assay on EKVX is 94.2 µM (inactive).

Turning to `COc1ccc(OCC(=O)O)c2c1CCC(C)C2=O` (configuration not stated), the GI50 was > 100 µM (inactive) with NCI-H460; more than 100 µM with HCT-15; > 100 µM (inactive) with K562; > 100 µM (inactive) with SF-268; > 100 µM (inactive) with NCI-H522; > 100 µM (inactive) in the assay with UO-31. Also, the GI50 in the assay on 786-0, in the assay on A498, in the assay on LOX IMVI, with A549, in the assay on HOP-62 and in the assay with SF-295 was > 100 µM (inactive) throughout. Moreover, the GI50 with OVCAR-5, in the assay with HCT-116 and in the assay with EKVX was > 100 µM (inactive) each time.
